Converted amounts (≈) assume the structure as drawn. Where two headings read alike, the source gives them in different places. Numbered stars: 1 amine (or outer) side, 2 acyl side, 3 side chain; on linkers, the order of the positions; unused ones are H or OH. Bridge positions count the residues as written; N and C are the ends. Square brackets hold non-standard residues; d marks the D form. Peptide text beside a SMILES is read from it. * marks the point of attachment. Phe(4-NH2) = Nc1ccc(C[C@H](N)C(=O)O)cc1; X1 = c1ccc(-c2ccc(N*)cc2)cc1; dDab = NCC[C@@H](N)C(=O)O; Octanoyl = CCCCCCCC(=O)*; Dab = NCC[C@H](N)C(=O)O; CO = O=C([*:1])[*:2]
Legend:
[1] = tested on: K. pneumoniae CI 138-16357-20362, PmxR; settings: MIC K. pneumoniae CI 138-16357-20362, PmxR (µg/mL)
[2] = tested on: K. pneumoniae CI 138-16357-20362, PmxR; test: microbe, parasite or virus in culture; type: cell-based, Klebsiella pneumoniae; settings: carbapenem & polymyxin resistant clinical isolate; MHB, 5 × 10^5 CFU/mL, 18 h at 37 °C
Description: (§1) Bacteria were either obtained from American Type Culture Collection (ATCC; Manassas, VA, USA) or independent academic clinical isolate collections, as listed in Table S2. Bacteria were cultured in nutrient broth (NB; Bacto Laboratories, catalog no. 234000) or Muller Hinton broth (MHB; Bacto Laboratories, catalog no. 211443) at 37 °C overnight with shaking (∼180 rpm). A sample of each culture was then diluted 50-fold in fresh MHB and incubated at 37 °C for 1.5–3 h with shaking (∼180 rpm). Compound stock solutions were prepared as 0.64 or 2.56 mg/mL in water. The compounds, at twice the final desired concentration, were serially diluted 2-fold across the wells of 96-well plates (Polystyrene, Corning, catalogue No. 3370). Mid log phase bacterial cultures (after 1.5–3 h incubation) were diluted to a final concentration of 5 × 10^5 colony forming units (CFU)/mL, and 50 μL was added to each well giving a final compound concentration range of 32 μg/mL to 0.015 μg/mL (128–0.06 μg/mL for colistin and polymyxin B against the polymyxin resistant clinical isolates). MICs were determined visually after 18 h of incubation at 37 °C, with the MIC defined as the lowest compound concentration at which no bacterial growth was visible.
(§2) Table S2. Bacterial strains used for Minimum Inhibitory Concentration (MIC) […]
(§3) Organism Strain Strain description Strain Source
(§4) Escherichia coli ATCC 25922 FDA strain Seattle 1946 ATCC
(§5) Klebsiella pneumoniae ATCC 13883 Control strain ATCC
(§6) Klebsiella pneumoniae ATCC 700603 Multi-drug resistant ATCC
(§7) Klebsiella pneumoniae BAA-2146 Metallo-beta-lactamase- ATCC
(§8) Acinetobacter baumannii ATCC 19606 Type strain ATCC
(§9) Pseudomonas aeruginosa ATCC 27853 Type strain ATCC
(§10) Pseudomonas aeruginosa FADDI-PA070 Clinical isolate, Nation and Li labs, polymyxin resistant Monash University
(§11) Clinical isolate, Wang Hengzhuang, Pseudomonas aeruginosa PA9704 polymyxin resistant University Hospital of […]
(§12) Ptyela Clinical isolate, Ilias Karaiskos and Acinetobacter baumannii Carbapenem & Helen Giamarellou
(§13) Clinical isolate, Medicine, Hygeia
(§14) Klebsiella pneumoniae Koprana Carbapenem, & General Hospital, […]
(§15) Clinical isolate, (Instituto Dante […]
(§16) polymyxin resistant Cardiologia, São […]

[3] = tested on: primary human renal proximal tubule epithelial (hPT) cells; test: Nephrotoxicity assay, LDH release; type: cell-based; settings: primary human kidney cells
Description: (§17) Primary human renal proximal tubule epithelial (hPT) cells were isolated and used for in vitro prediction of drug-induced nephrotoxicity[63],[64],[69] by measuring the release of metabolism enzymes, LDH and GGT, as previously described.[70]

[4] = tested on: primary human renal proximal tubule epithelial (hPT) cells; test: Nephrotoxicity assay, GGT release; type: cell-based; settings: primary human kidney cells
Description: as §17

HepG2 = settings: CC50 HepG2 (µM)
[5] = tested on: P. aeruginosa FADDI-PA070, PmxR; settings: MIC P. aeruginosa FADDI-PA070, PmxR (µg/mL)
[6] = tested on: S. aureus ATCC 25923, MSSA; settings: MIC S. aureus ATCC 25923, MSSA (µg/mL)
A. baumannii ATCC 19606 = settings: MIC A. baumannii ATCC 19606 (µg/mL)
K. pneumoniae ATCC 13883 = settings: MIC K. pneumoniae ATCC 13883 (µg/mL)
[7] = tested on: P. aeruginosa PA9704, PmxR; settings: MIC P. aeruginosa PA9704, PmxR (µg/mL)
[8] = tested on: A. baumannii CI Ptyela 100734512:2, PmxR; settings: MIC A. baumannii CI Ptyela 100734512:2, PmxR (µg/mL)
[9] = tested on: K. pneumoniae CI Koprana 100650661:1, PmxR; settings: MIC K. pneumoniae CI Koprana 100650661:1, PmxR (µg/mL)
[10] = tested on: K. pneumoniae CI Koprana 100650661:1, PmxR; test: microbe, parasite or virus in culture; type: cell-based, Klebsiella pneumoniae; settings: carbapenem & polymyxin resistant clinical isolate; MHB, 5 × 10^5 CFU/mL, 18 h at 37 °C
Description: as §1, §2, §3, §4, §5, §6, §7, §8, §9, §10, §11, §12, §13, §14, §15, §16

[11] = tested on: A. baumannii CI Ptyela 100734512:2, PmxR; test: microbe, parasite or virus in culture; type: cell-based, Acinetobacter baumannii; settings: carbapenem & polymyxin resistant clinical isolate; MHB, 5 × 10^5 CFU/mL, 18 h at 37 °C
Description: as §1, §2, §3, §4, §5, §6, §7, §8, §9, §10, §11, §12, §13, §14, §15, §16

HepG2 cells = test: Cytotoxicity assay (resazurin assay); type: cell-based, human; settings: 4000 cells/well, 24 h incubation with compound, fluorescence 560/590
Description: Cytotoxicity to HEK293 and HepG2 cells was determined using the resazurin assay.[67],[68] […] Compounds were then added into each well. After 24 h incubation, 5 μM resazurin was added per well and incubated at 37 °C for 2 h. Fluorescence intensity was then read using a Polarstar Omega with excitation/emission 560/590. The data were then analyzed using GraphPad Prism 6 software. CC50 values were determined using GraphPad Prism 6 software (Inc. La Jolla, CA).

[12] = tested on: S. aureus ATCC 25923, MSSA; test: microbe, parasite or virus in culture; type: cell-based, Staphylococcus aureus
Description: as §1, §2, §3, §4, §5, §6, §7, §8, §9, §10, §11, §12, §13, §14, §15, §16

Row | Compound | MIC [1] | MIC K. pneumoniae CI 138-16357-20362, PmxR [2] | LDH release CC50 [3] | GGT release CC50 [4] | CC50 (HepG2) | MIC [5] | MIC [6] | MIC (A. baumannii ATCC 19606) | MIC (K. pneumoniae ATCC 13883) | MIC [7] | MIC [8] | MIC [9] | MIC K. pneumoniae CI Koprana 100650661:1, PmxR [10] | MIC A. baumannii CI Ptyela 100734512:2, PmxR [11] | HepG2 - CC50 (HepG2 cells) | MIC S. aureus ATCC 25923, MSSA ([12]; ATCC 25923, 18 h) | MIC ([12]; Staphylococcus aureus, 18 h, read-out: MIC S. aureus ATCC 25923, MSSA)
1 | CC(C)C[C@@H]1NC(=O)[C@@H](Cc2ccccc2)NC(=O)[C@H](CCN)NC(=O)[C@@H](NC(=O)[C@H](CCN)NC(=O)[C@@H](NC(=O)[C@H](CCN)NC(=O)Nc2ccc(-c3ccccc3)cc2)[C@@H](C)O)CCNC(=O)[C@H]([C@@H](C)O)NC(=O)[C@H](CCN)NC(=O)[C@H](CCN)NC1=O [Compound 15] ({X1-CO}-[Dab]T[Dab][Dab][Dab][dF]L[Dab][Dab]T; lactam 4-C) | > 32 µg/mL | >32 µg/mL | >128 µg/mL | >128 µg/mL | 316 µM | – | – | – | – | – | – | – | – | – | – | – | –
2 | CCCCCCCC(=O)N[C@@H](CCN)C(=O)N[C@H](C(=O)N[C@@H](CCN)C(=O)N[C@H]1CCNC(=O)[C@H]([C@@H](C)O)NC(=O)[C@H](Cc2ccc(N)cc2)NC(=O)[C@H](CCN)NC(=O)[C@H](CC(C)C)NC(=O)[C@@H](Cc2ccccc2)NC(=O)[C@H](CCN)NC1=O)[C@@H](C)O [Compound 20] (Octanoyl-[Dab]T[Dab][Dab][Dab][dF]L[Dab][Phe(4-NH2)]T; lactam 4-C) | > 32 µg/mL | >32 µg/mL | – | – | > 300 µM | > 32 µg/mL | > 32 µg/mL | > 32 µg/mL | > 32 µg/mL | > 32 µg/mL | > 32 µg/mL | > 32 µg/mL | >32 µg/mL | – | – | – | –
3 | CCCCCCCC(=O)N[C@@H](CCN)C(=O)N[C@H](C(=O)N[C@@H](CCN)C(=O)N[C@H]1CCNC(=O)[C@H]([C@@H](C)O)NC(=O)[C@H](CCCNC(=N)N)NC(=O)[C@H](CCN)NC(=O)[C@H](CC(C)C)NC(=O)[C@@H](Cc2ccccc2)NC(=O)[C@H](CCN)NC1=O)[C@@H](C)O [Compound 21] (Octanoyl-[Dab]T[Dab][Dab][Dab][dF]L[Dab]RT; lactam 4-C) | > 32 µg/mL | >32 µg/mL | – | – | > 300 µM | > 32 µg/mL | > 32 µg/mL | – | > 32 µg/mL | > 32 µg/mL | > 32 µg/mL | > 32 µg/mL | >32 µg/mL | – | – | – | –
4 | CCCCCCCC(=O)N[C@@H](CCN)C(=O)N[C@H](C(=O)N[C@@H](CCN)C(=O)N[C@H]1CCNC(=O)[C@H]([C@@H](C)O)NC(=O)[C@H](CCN)NC(=O)[C@H](CCN)NC(=O)[C@H](CC(C)C)NC(=O)[C@@H](Cc2ccccc2)NC(=O)[C@H](CCCNC(=N)N)NC1=O)[C@@H](C)O [Compound 35] (Octanoyl-[Dab]T[Dab][Dab]R[dF]L[Dab][Dab]T; lactam 4-C) | > 32 µg/mL | >32 µg/mL | – | – | > 300 µM | > 32 µg/mL | > 32 µg/mL | > 32 µg/mL | > 32 µg/mL | > 32 µg/mL | > 32 µg/mL | > 32 µg/mL | >32 µg/mL | – | – | – | –
5 | CCCCCCCC(=O)N[C@@H](CCN)C(=O)N[C@H](C(=O)N[C@H](CCN)C(=O)N[C@H]1CCNC(=O)[C@H]([C@@H](C)O)NC(=O)[C@H](CCN)NC(=O)[C@H](CCN)NC(=O)[C@H](CC(C)C)NC(=O)[C@@H](Cc2ccccc2)NC(=O)[C@H](CCN)NC1=O)[C@@H](C)O [Compound 36] (Octanoyl-[Dab]T[dDab][Dab][Dab][dF]L[Dab][Dab]T; lactam 4-C) | > 32 µg/mL | >32 µg/mL | – | – | > 300 µM | > 32 µg/mL | > 32 µg/mL | – | – | – | > 32 µg/mL | > 32 µg/mL | >32 µg/mL | >32 µg/mL | >300 µM | >32 µg/mL | –
6 | CCCCCCCC(=O)N[C@@H](CCN)C(=O)N[C@H](C(=O)N[C@H](CO)C(=O)N[C@H]1CCNC(=O)[C@H]([C@@H](C)O)NC(=O)[C@H](CCN)NC(=O)[C@H](CCN)NC(=O)[C@H](CC(C)C)NC(=O)[C@@H](Cc2ccccc2)NC(=O)[C@H](CCN)NC1=O)[C@@H](C)O [Compound 37] (Octanoyl-[Dab]T[dS][Dab][Dab][dF]L[Dab][Dab]T; lactam 4-C) | > 32 µg/mL | >32 µg/mL | – | – | > 300 µM | > 32 µg/mL | > 32 µg/mL | – | – | > 32 µg/mL | > 32 µg/mL | > 32 µg/mL | >32 µg/mL | – | – | – | –
7 | CCCCCCCC(=O)NCC(=O)N[C@@H](CCN)C(=O)N[C@H](C(=O)N[C@H]1CCNC(=O)[C@H]([C@@H](C)O)NC(=O)[C@H](CCN)NC(=O)[C@H](CCN)NC(=O)[C@H](CC(C)C)NC(=O)[C@@H](Cc2ccccc2)NC(=O)[C@H](CCN)NC1=O)[C@@H](C)O [Compound 41] (Octanoyl-G[Dab]T[Dab][Dab][dF]L[Dab][Dab]T; lactam 4-C) | > 32 µg/mL | >32 µg/mL | – | – | > 300 µM | > 32 µg/mL | > 32 µg/mL | > 32 µg/mL | – | > 32 µg/mL | > 32 µg/mL | > 32 µg/mL | >32 µg/mL | – | – | – | –
8 | CN[C@@H](CC(C)C)C(=O)N[C@H]1C(=O)N[C@@H](CC(N)=O)C(=O)N[C@H]2C(=O)N[C@H]3C(=O)N[C@H](C(=O)N[C@@H](C(=O)O)c4cc(O)cc(O)c4-c4cc3ccc4O)[C@H](O)c3ccc(c(Cl)c3)Oc3cc2cc(c3O[C@H]2O[C@@H](CO)[C@H](O)[C@@H](O)[C@@H]2O[C@@H]2C[C@@](C)(N)[C@@H](O)[C@@H](C)O2)Oc2ccc(cc2Cl)[C@H]1O [Vancomycin, reference compound] | – | – | – | – | – | – | – | – | – | – | – | – | – | – | >300 µM | – | 2 µg/mL (≈ 1.38 µM)
